From patent publication US5721208A, “Glycopeptides a process for their preparation and their use” (Hoechst Aktiengesellschaft, priority 1991, dated 1998)

Columns and labels:
Staph. aureus SG 511 = test: Minimum bacteriostatic inhibitory concentration, Agar dilution method; type: cell-based
Staph. aureus 285 = test: as above; type: cell-based
Staph. aureus 503 = test: as above; type: cell-based
Strept. pyogenes 308 A = test: as above; type: cell-based
Strept. pyogenes 77 A = test: as above; type: cell-based
Strept. faecium D = test: as above; type: cell-based
Escherichia coli DC 2 = test: as above; type: cell-based
Bact. fragilis 312 = test: as above; type: cell-based
Bact. fragilis 960 = test: as above; type: cell-based
Bact. fragilis 1313 = test: as above; type: cell-based
Bact. vulgatus 1446 = test: as above; type: cell-based
[1] = tested on: Peptostrept. anaerob. 932; test: as above; type: cell-based
Propioni acnes 6916 = test: as above; type: cell-based
Propioni acnes 6922 = test: as above; type: cell-based
[2] = tested on: Clostridium tetani ATCC 1940650; settings: Agar dilution method
[3] = tested on: Clostridium perfringens 194; settings: Agar dilution method

Row | Compound | Minimum bacteriostatic inhibitory concentration (Staph. aureus SG 511) | Minimum bacteriostatic inhibitory concentration (Staph. aureus 285) | Minimum bacteriostatic inhibitory concentration (Staph. aureus 503) | Minimum bacteriostatic inhibitory concentration (Strept. pyogenes 308 A) | Minimum bacteriostatic inhibitory concentration (Strept. pyogenes 77 A) | Minimum bacteriostatic inhibitory concentration (Strept. faecium D) | Minimum bacteriostatic inhibitory concentration (Escherichia coli DC 2) | Minimum bacteriostatic inhibitory concentration (Bact. fragilis 312) | Minimum bacteriostatic inhibitory concentration (Bact. fragilis 960) | Minimum bacteriostatic inhibitory concentration (Bact. fragilis 1313) | Minimum bacteriostatic inhibitory concentration (Bact. vulgatus 1446) | Minimum bacteriostatic inhibitory concentration [1] | Minimum bacteriostatic inhibitory concentration (Propioni acnes 6916) | Minimum bacteriostatic inhibitory concentration (Propioni acnes 6922) | Minimum bacteriostatic inhibitory concentration [2] | Minimum bacteriostatic inhibitory concentration [3]
1 | balhimycin V | 0.4 micrograms per milliliter | 0.4 micrograms per milliliter | 0.1 micrograms per milliliter | 0.05 micrograms per milliliter | 0.05 micrograms per milliliter | 0.2 micrograms per milliliter | > 100 micrograms per milliliter | – | – | – | – | – | – | – | – | –
2 | CNC(CC(C)C)C(=O)NC1C(=O)NC(CC(N)=O)C(=O)NC2C(=O)NC3C(=O)NC(C(=O)NC(C(=O)O)c4cc(O)cc(O)c4-c4cc3ccc4O)C(OC3CC(C)(N)C(=O)C(C)O3)c3ccc(c(Cl)c3)Oc3cc2cc(c3O)Oc2ccc(cc2Cl)C1O (centres unmarked) [Desglucobalhimycin, desglucobalhimycin] | 0.2 micrograms per milliliter | 0.2 micrograms per milliliter | 0.1 micrograms per milliliter | 0.1 micrograms per milliliter | 0.1 micrograms per milliliter | 0.2 micrograms per milliliter | > 100 micrograms per milliliter | 25 micrograms per milliliter | 25 micrograms per milliliter | 25 micrograms per milliliter | > 100 micrograms per milliliter | 0.4 micrograms per milliliter | 0.2 micrograms per milliliter | 0.2 micrograms per milliliter | 0.4 micrograms per milliliter | 0.1 micrograms per milliliter
3 | CC(C)CC(N)C(=O)NC1C(=O)NC(CC(N)=O)C(=O)NC2C(=O)NC3C(=O)NC(C(=O)NC(C(=O)O)c4cc(O)cc(O)c4-c4cc3ccc4O)C(OC3CC(C)(N)C(=O)C(C)O3)c3ccc(c(Cl)c3)Oc3cc2cc(c3O)Oc2ccc(cc2Cl)C1O (centres unmarked) [Desmethyl-desglucobalhimycin, desmethyl-desglucobalhimycin] | 0.2 micrograms per milliliter | 0.2 micrograms per milliliter | 0.1 micrograms per milliliter | 0.1 micrograms per milliliter | 0.1 micrograms per milliliter | 0.2 micrograms per milliliter | > 100 micrograms per milliliter | 50 micrograms per milliliter | 25 micrograms per milliliter | 50 micrograms per milliliter | > 100 micrograms per milliliter | 0.2 micrograms per milliliter | 0.2 micrograms per milliliter | 0.1 micrograms per milliliter | – | 0.1 micrograms per milliliter
4 | CNC(CC(C)C)C(=O)NC1C(=O)NC(CC(N)=O)C(=O)NC2C(=O)NC3C(=O)NC(C(=O)NC(C(=O)O)c4cc(O)cc(O)c4-c4cc3ccc4O)C(OC3CC4(C)NC(=O)NC4(O)C(C)O3)c3ccc(c(Cl)c3)Oc3cc2cc(c3OC2OC(CO)C(O)C(O)C2O)Oc2ccc(cc2Cl)C1O (centres unmarked) [Ureidobalhimycin, ureidobalhimycin] | 0.8 micrograms per milliliter | 1.5 micrograms per milliliter | 1.5 micrograms per milliliter | 0.8 micrograms per milliliter | 0.8 micrograms per milliliter | 1.5 micrograms per milliliter | > 100 micrograms per milliliter | 25 micrograms per milliliter | 25 micrograms per milliliter | 25 micrograms per milliliter | 50 micrograms per milliliter | 6.2 micrograms per milliliter | 0.8 micrograms per milliliter | 1.5 micrograms per milliliter | 12.5 micrograms per milliliter | 0.4 micrograms per milliliter
5 | CC1OC(OC2c3ccc(c(Cl)c3)Oc3cc4cc(c3OC3OC(CO)C(O)C(O)C3O)Oc3ccc(cc3Cl)C(O)C(N)C(=O)NC(CC(N)=O)C(=O)NC4C(=O)NC3C(=O)NC2C(=O)NC(C(=O)O)c2cc(O)cc(O)c2-c2cc3ccc2O)CC(C)(N)C1=O (centres unmarked) [Desmethylleucylbalhimycin, desmethylleucylbalhimycin] | 3 micrograms per milliliter | 6 micrograms per milliliter | 6 micrograms per milliliter | 12.5 micrograms per milliliter | 3 micrograms per milliliter | 6 micrograms per milliliter | > 100 micrograms per milliliter | 50 micrograms per milliliter | 50 micrograms per milliliter | 100 micrograms per milliliter | 100 micrograms per milliliter | 50 micrograms per milliliter | 6 micrograms per milliliter | 6 micrograms per milliliter | 50 micrograms per milliliter | 6 micrograms per milliliter
6 | CC(C)CC(N)C(=O)NC1C(=O)NC(CC(N)=O)C(=O)NC2C(=O)NC3C(=O)NC(C(=O)NC(C(=O)O)c4cc(O)cc(O)c4-c4cc3ccc4O)C(OC3CC(C)(N)C(=O)C(C)O3)c3ccc(c(Cl)c3)Oc3cc2cc(c3OC2OC(CO)C(O)C(O)C2O)Oc2ccc(cc2Cl)C1O (centres unmarked) [Desmethylbalhimycin, desmethylbalhimycin] | 0.1 micrograms per milliliter | 0.1 micrograms per milliliter | 0.05 micrograms per milliliter | 0.05 micrograms per milliliter | 0.05 micrograms per milliliter | 0.2 micrograms per milliliter | 10 micrograms per milliliter | 100 micrograms per milliliter | 25 micrograms per milliliter | 50 micrograms per milliliter | 50 micrograms per milliliter | 25 micrograms per milliliter | 0.8 micrograms per milliliter | 0.4 micrograms per milliliter | 50 micrograms per milliliter | 0.2 micrograms per milliliter
7 | balhimycin R | 0.2 micrograms per milliliter | 0.8 micrograms per milliliter | 0.2 micrograms per milliliter | 0.2 micrograms per milliliter | 0.2 micrograms per milliliter | 0.4 micrograms per milliliter | 50 micrograms per milliliter | > 100 micrograms per milliliter | > 100 micrograms per milliliter | > 100 micrograms per milliliter | > 100 micrograms per milliliter | 100 micrograms per milliliter | 6.2 micrograms per milliliter | 3.1 micrograms per milliliter | 100 micrograms per milliliter | –
